Reference: patent US11806343B2, “Inhibitors of DUX4 induction for regulation of muscle function” (Sonic Master Limited, priority 2017, dated 2023)

Tested on: Caspase 3/7
Assay: Live cell imaging of Caspase 3/7 cleavage dye fluorescence through myotube formation
Format: cell-based, human
Conditions: 17MB026 primary myotubes, six concentrations 10 nM-3 μM, imaged four days
Procedure: 17MB026 primary FSHD-affected patient myoblasts (obtained from the University of Rochester FSHD Biorepository) were thawed and cultured as described in Rickard et al., 2015 in primary myoblast medium. Cells (4000 per well) were seeded to a collagen-I coated 96-well plate in 100 μL primary myoblast medium. Medium was changed every other day until cells reached 80% continence followed by a switch to 100 μL per well primary myotube medium containing 1:5000 diluted Caspase 3/7 Green. Apoptosis Assay Reagent (Essen Bioscience). […] Cells were imaged in the phase and green channels every six hours for four days to quantify green intensity×area per image. Triplicate wells of each condition were averaged.

CNC(=O)c1cc(Oc2ccc(NC(=O)Nc3cc(C(C)(C)C)nn3-c3ccc4ncccc4c3)c(F)c2)ccn1 [GBC0905, Rebastinib]
Caspase 3/7 activation: dose-dependent decrease in Caspase 3/7 activation
